Experimental data: patent US9492368B2, “External preparation for skin” (HAYASHIBARA CO., LTD., priority 2011, dated 2016)
Where two headings read alike, the source gives them in different places. Marks after values point to notes of the source that are not given here.

How the values were obtained:
[1] = biological target: T1, adenosine deaminase (ADA) (Homo sapiens, UniProt P00813); settings: 0.5 mM, pH 7.5
T1 sequence (P00813 1-363): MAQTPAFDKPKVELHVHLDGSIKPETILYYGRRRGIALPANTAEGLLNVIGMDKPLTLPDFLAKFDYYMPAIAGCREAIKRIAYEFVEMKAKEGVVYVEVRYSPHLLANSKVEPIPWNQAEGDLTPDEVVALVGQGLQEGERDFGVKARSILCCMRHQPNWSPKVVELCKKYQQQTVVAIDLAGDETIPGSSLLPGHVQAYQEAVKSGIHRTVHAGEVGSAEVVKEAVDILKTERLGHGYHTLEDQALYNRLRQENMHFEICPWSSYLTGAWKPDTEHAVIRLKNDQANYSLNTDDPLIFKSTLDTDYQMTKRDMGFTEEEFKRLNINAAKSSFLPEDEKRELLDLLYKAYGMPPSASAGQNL
Procedure: Adenosine has been confirmed to be promptly hydrolyzed into inosine and hypoxanthine by adenosine deaminase (ADA) intrinsically present in living bodies. To examine the possibility of sustainably exerting effects by glucosyladenosines as adenosine glycosides, a test for confirming whether 5′- and 3′-glucosyladenosines are hydrolyzed in living bodies was conducted using a cell lysate of a normal human fetal fibroblast as a source for an adenosine metabolism-relatedenzyme. “NHDF cells”, a normal human fetal fibroblast, commercialized by Kurabo Industries, Osaka, Japan (called “NHDF cells”, hereinafter), which had been diluted with “Dulbecco's Modified Eagle Medium “Nissui” (abbreviated as […], hereinafter), a product name of a Dulbecco's Medium Essential Medium, commercialized by Nissui Pharmaceutical Co., Ltd., Tokyo, Japan, containing 10 v/v % fetal calf serum […] (called “FCS”, hereinafter) was inoculated to 150 cm^2 culture flasks (commercialized by Corning, N.Y., USA) in a cell amount of 1.5×10^6 cells/20 ml/flask, and cultured for four days. After removing each culture supernatant, the resulting cells were treated with “Trypsin-EDTA”, a product name of 0.05% by mass of trypsin/EDTA solution, commercialized by Gibco, NY., USA, followed by collecting the cell suspensions from each flask. […] CELL DISROPTOR 185” thrice (30 sec×twice for each) for cell disruption, centrifuged at 15,000 rpm for five minutes to collect supernatants as a cell lysate. 0.9 ml of the cell lysate and 0.1 ml of phosphate buffered saline (PBS), which had been prepared by dissolving either the 5′-glucosyladenosine that had had been prepared in Experiment 1-2 or the 3′-glucosyladenosine that had had been prepared in Experiment 2 to give a concentration of 5 mM, were mixed, stirred, and allowed to react at 37° C. Reaction solutions at reaction times 0, 1, 7 and 24 hours after initiating the reaction were collected, treated with the same method as in Experiment 3, and quantified for adenosine and glucosyladenosines by an HPLC method. Relative values for concentrations of these compounds at respective reaction times were calculated when the concentration at the reaction initiation for each compound was regarded as 100%, and they are shown in Table 3 as residual percentages of adenosine or glucosyladenosines.

sphingomyelinase (SMase) = assay: Real-time PCR gene expression in NHEK cells: sphingomyelinase; format: cell-based, human; settings: 1 μM, seven days, relative to control = 1.00
Procedure: Since glucosyladenosines were confirmed in Experiment 5 to have an action of enhancing the differentiation of keratinocytes effective for skin improvement, a test for examining the change of the expression level of a molecular marker gene of keratinocytes, as an index, was performed as follows using a real-time PCR analysis method to examine the above action in more detail. The expression level of a ceramide-synthesis-related gene was also studied to examine the influence of glucosyladenosines on ceramide synthesis that had been known to have an important role in moisturizing the skin and barrier function of the skin and deemed to be effective for skin improvement. As genes for analysis, profilaggrin (PFG: a later differentiation marker) and involucrin (INV: an early differentiation marker) as differentiation markers of keratinocytes and β-glucocerebrosidase (GCase) and sphingomyelinase (SMase) as ceramide-synthesis-related enzymes were selected, and a gene for cyclophilin B (CypB) as an internal standard upon practicing PCR reaction was used (see FIG. 7). NHEK cells were inoculated to 6-well plate coated with collagen in an amount of 8×10^4 cells/1.5 ml/well, cultured with EpiLife medium, and cultured at 37° C. for two days under a 5 v/v % CO2 condition. Thereafter, the culture medium was removed, and the resulting cells were added with a fresh EpiLife medium containing 5′-glucosyladenosine, 3′-glucosyladenosine, or adenosine in a volume of 1.5 ml/well (giving a final concentration of 1 μM of any one of glucosyladenosines and adenosine), and cultured for seven days while replacing the medium with a fresh one containing any one of glucosyladenosines and adenosine in a volume of 1.5 ml/well every other day. After completion of the culture, each well was washed twice with PBS(K−), followed by adding 0.2 ml/well of 0.025% by mass of trypsin/EDTA solution to the resulting cells and allowing the cells to stand at an ambient temperature for five minutes to detach them from the plates. […]

Row | SMILES | Remaining percentage ([1]; 0 h) | Remaining percentage ([1]; 1 h) | Remaining percentage ([1]; 7 h) | Remaining percentage ([1]; 24 h) | Gene expression level SMase (sphingomyelinase (SMase))
1 | Nc1ncnc2c1ncn2[C@@H]1O[C@H](CO)[C@@H](O[C@H]2O[C@H](CO)[C@@H](O)[C@H](O)[C@H]2O)[C@H]1O [3′-Glucosyladenosine, α-D-glucopyranosyl-(1→3′)-adenosine] | 100% | 95% | 86% | 17% | 2.03*
2 | Nc1ncnc2c1ncn2[C@@H]1O[C@H](CO[C@H]2O[C@H](CO)[C@@H](O)[C@H](O)[C@H]2O)[C@@H](O)[C@H]1O [5′-Glucosyladenosine, α-D-glucopyranosyl-(1→5′)-adenosine] | 100% | 101% | 100% | 96% | 2.57**
3 | Nc1ncnc2c1ncn2[C@@H]1O[C@H](CO)[C@@H](O)[C@H]1O [Adenosine, reference compound] | 100% | 53% | 0% | 0% | 1.35
